Assay [1] concerns the target LmajFGSK-3 (LmajGSK-3 short Y102F mutant) (Leishmania major, UniProt Q4QE15, Y102F). As to the kind of experiment: biochemical. Format: biochemical, L. major.
Assay [2] deals with HsGSK-3β (Homo sapiens, UniProt P49841). As to the kind of experiment: Kinase-Glo assay, inhibition of human GSK-3β. In kind it is biochemical. As to conditions: read-out: Mean IC50 (SD), HsGSK-3b; 3.2 μM BioGSP-2, 2 μM ATP, 90 minutes at 30°C. (In general: In Kinase-Glo more light means more ATP remaining.)
Assay [3] addresses LmajEGSK-3 (LmajGSK-3 short D105E mutant) (Leishmania major, UniProt Q4QE15, D105E). As to the kind of experiment: biochemical. Format: biochemical, L. major.
In assay [4] the target is LmajGSK-3 short (Leishmania major, UniProt Q4QE15). The assay is described as follows: biochemical. Further details: species or system L. major.
The target of assay [5] is LinfGSK-3 short (Leishmania infantum, UniProt A4HXQ3). As to the kind of experiment: biochemical. Format: biochemical, L. infantum. As to conditions: for mode of inhibition of LinfGSK-3 short (velocity at different ATP concentrations): Fig. 3A.
In assay [6] the target is TbruGSK-3 short (Trypanosoma brucei brucei, UniProt Q388M1). The assay is described as follows: biochemical. In kind it is biochemical, T. brucei.
The target of assay [7] is LmajEFGSK-3 (LmajGSK-3 short Y102F and D105E double mutant) (Leishmania major, UniProt Q4QE15, D105E/Y102F). The assay is described as follows: biochemical. Further details: species or system L. major.
The mark [8] stands for this setting: read-out: Mean IC50 (SD), LmajFGSK-3, Y102F mutant, 8.2 nM enzyme, 3.2 μM BioGSP-2, 2 μM ATP, 90 minutes at 30°C.

The values that follow come from PMC3045540 (Molecular and biochemical parasitology, 2010).

Like-named read-outs stand apart in the source and are kept apart here.

Usually IC50 stands for the concentration that gives 50% inhibition.

Sequence of HsGSK-3β (P49841 whole entry): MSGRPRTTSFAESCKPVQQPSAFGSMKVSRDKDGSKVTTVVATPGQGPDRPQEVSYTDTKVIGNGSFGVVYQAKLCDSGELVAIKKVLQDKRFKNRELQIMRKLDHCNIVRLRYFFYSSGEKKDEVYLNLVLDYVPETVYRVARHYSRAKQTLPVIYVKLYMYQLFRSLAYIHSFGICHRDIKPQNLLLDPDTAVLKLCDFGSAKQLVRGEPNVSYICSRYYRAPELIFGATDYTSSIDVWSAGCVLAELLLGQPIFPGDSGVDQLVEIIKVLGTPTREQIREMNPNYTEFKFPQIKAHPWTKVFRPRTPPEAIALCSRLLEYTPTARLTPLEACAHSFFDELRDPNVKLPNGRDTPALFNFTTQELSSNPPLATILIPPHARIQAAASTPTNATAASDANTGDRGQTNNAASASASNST

Take `N#CCCc1ccc2c(c1)-c1[nH]c3ccc([N+](=O)[O-])cc3c1CC(=O)N2` [Alster-paullone, 2-cyanoethyl]: the IC50 in assay [1] (setting [8]) came to 310 nM; in assay [2] it was 20 nM.
In the same order, the values of `O=C1Nc2ccccc2/C1=C/c1cnc[nH]1` [Angio-genesis inhibitor] are 8470 nM and 1620 nM.
Turning to `COc1ccc(CNC(=O)Nc2ncc([N+](=O)[O-])s2)cc1` [GSK-3β Inhibitor VIII], in assay [3] (D105E mutant, 8.2 nM enzyme, 3.2 μM BioGSP-2, 2 μM ATP, 90 minutes at 30°C), the “Mean IC50 (SD), LmajEGSK-3” value was “no activity”. The “Mean IC50 (SD), LmajGSK-3” value in assay [4] (8.2 nM enzyme, 3.2 μM BioGSP-2, 2 μM ATP, 90 minutes at 30°C) is on record as “no activity”. In assay [1] (Y102F mutant, 8.2 nM enzyme, 3.2 μM BioGSP-2, 2 μM ATP, 90 minutes at 30°C), the “Mean IC50 (SD), LmajFGSK-3” value is listed as “no activity”. Also, the “Mean IC50 (SD), LinfGSK-3” value in assay [5] (2.8 nM enzyme, 3.2 μM BioGSP-2, 2 μM ATP, 90 minutes at 30°C) was “no activity”.
Take `O=C1Nc2ccc3ncsc3c2/C1=C/Nc1ccc(S(=O)(=O)Nc2ccccn2)cc1` [GW8510]: in assay [3] (relative to wild type LmajGSK-3 short), the “effect of mutation D105E of LmajGSK-3 short on sensitivity to inhibition” value is given as roughly 2 fold. Further, the IC50 in assay [1] (read-out: IC50 value for the LmajGSK-3 short Y102F mutant) worked out at 93 nM; in assay [1] (setting [8]), 90 nM; in assay [5] (read-out: IC50 value for LinfGSK-3 short), 628 nM; in assay [2], 20 nM; in assay [6] (read-out: IC50 value for TbruGSK-3 short) it was 21 nM. Further, the “mode of inhibition of LinfGSK-3 short (velocity at different ATP concentrations)” value in assay [5] is reported as “ATP competitive”.
As to `NC1=NC(=O)/C(=C2\CCNC(=O)c3[nH]c(Br)cc32)N1` [Hymeni-aldisine, Stylissa dami-cornis, Hymenialdisine], the IC50 in assay [3] came to 10.4 µM; in assay [4], 13.1 µM; in assay [1], 16100 nM; in assay [5] it was 18200 nM; in assay [6] it was 3950 nM; in assay [7], 9.25 µM.
Take `O=C1Nc2ccc(S(=O)(=O)O)cc2C1=C1Nc2ccccc2C1=NO` [Indirubin-3'-monoxime-5-sulphonic Acid]: the IC50 was 930 nM in assay [1] (setting [8]) and 60 nM in assay [2].
On to `Cn1cc(C2=C(c3cn(CCCN)c4ccccc34)C(=O)NC2=O)c2ccccc21` [Ro-31-7549], for which the IC50 turned out to be 1080 nM in assay [1] (setting [8]) and 4 nM in assay [2].
For `COc1ccc2c(c1)/C(=C/c1cnc[nH]1)C(=O)N2` [SU9516], the IC50 in assay [3] was determined as 3.15 µM; in assay [4] it was 3.04 µM; in assay [1], 1400 nM; in assay [5], 1870 nM; in assay [6] it was 590 nM; in assay [7], 1.29 µM.
On to Cdk1/2 Inhibitor III, for which the IC50 worked out at 150 nM in assay [1] (setting [8]) and 210 nM in assay [2]. In addition, the “mode of inhibition of LinfGSK-3 short (velocity at different ATP concentrations)” value in assay [5] is recorded as “ATP competitive”.
